Reference: the supplement of paper PMC10307832

What was measured:
Assay in all cases: relative viability (nuclei count vs DMSO), 5 days (fraction); higher = more cells survive
[1] = compound: CCN(CCO)CCCC(C)Nc1ccnc2cc(Cl)ccc12 [Hydroxychloroquine] + COc1cccc2cc(-c3nc([C@H]4CC[C@H](C(=O)O)CC4)n4ncnc(N)c34)[nH]c12 [OSI-027] (partner 0.5 µM)
How it was run: (§1)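 Nuclei were stained with Hoechst during a one-step fixation (final 0.05% Triton X-100, 1% formaldehyde, 1 ug/ml Hoechst) carried out 5 days after dosing, then counted on 4× images. The cells, lung cancer lines in 1536-well plates, had been dosed by pin tool the day after seeding with one drug alone or a fixed anchor-drug dose plus five library-drug doses (not always all listed) in √10 steps. Relative viability is the nuclei count in treated wells divided by that in vehicle wells, and each value is the median of duplicate plates.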

[2] = compound: CCN(CCO)CCCC(C)Nc1ccnc2cc(Cl)ccc12 [Hydroxychloroquine] + CS(=O)(=O)CCNCc1ccc(-c2ccc3ncnc(Nc4ccc(OCc5cccc(F)c5)c(Cl)c4)c3c2)o1 [Lapatinib] (partner 2 µM)
How it was run: as §1

[3] = compound: CCN(CCO)CCCC(C)Nc1ccnc2cc(Cl)ccc12 [Hydroxychloroquine] + C[C@]1(O)C[C@@H](c2nc(-c3ccc4ccc(-c5ccccc5)nc4c3)c3c(N)nccn32)C1 [Linsitinib] (partner 1 µM)
How it was run: as §1

[4] = compound: CCN(CCO)CCCC(C)Nc1ccnc2cc(Cl)ccc12 [Hydroxychloroquine] + Cc1nc(NC(=O)N2CCC[C@H]2C(N)=O)sc1-c1ccnc(C(C)(C)C(F)(F)F)c1 [Alpelisib] (partner 2 µM)
How it was run: as §1

Cell Line	relative viability ([1]; first compound 0.5 µM)	relative viability ([1]; first compound 1.581 µM)	relative viability ([1]; first compound 5 µM)	relative viability ([1]; first compound 15.81 µM)	relative viability ([1]; first compound 50 µM)	relative viability ([2]; first compound 0.5 µM)	relative viability ([2]; first compound 1.581 µM)	relative viability ([2]; first compound 5 µM)	relative viability ([2]; first compound 15.81 µM)	relative viability ([2]; first compound 50 µM)	relative viability ([3]; first compound 0.5 µM)	relative viability ([3]; first compound 1.581 µM)	relative viability ([3]; first compound 5 µM)	relative viability ([3]; first compound 15.81 µM)	relative viability ([3]; first compound 50 µM)	relative viability ([4]; first compound 0.5 µM)	relative viability ([4]; first compound 1.581 µM)	relative viability ([4]; first compound 5 µM)	relative viability ([4]; first compound 15.81 µM)	relative viability ([4]; first compound 50 µM)
HCC-78	0.377	0.376	0.366	0.323	0.349	1.29	0.706	0.492	0.746	0.764	0.49	0.728	0.304	0.516	0.455	0.394	0.299	0.316	0.331	0.31
HCC-366	0.896	0.932	0.673	0.862	1.05	0.968	1.06	1.02	1.15	1.19	0.573	0.769	0.613	0.627	0.796	0.569	0.375	0.368	0.434	0.482
HCC-827	0.802	0.572	0.821	1.03	0.763	0.202	0.222	0.212	0.183	0.205	1.01	0.927	0.922	0.956	0.977	1.05	1.03	0.939	1.03	0.979
HOP-62	0.877	0.892	0.843	0.825	0.767	1.07	0.889	1.1	0.98	1.04	0.95	0.873	1.15	0.868	0.987	0.997	1.18	1.15	1	1.04
IA-LM	–	–	–	–	–	0.863	1.09	0.862	0.869	0.795	0.569	0.281	0.66	0.383	0.695	0.878	0.377	0.811	0.607	0.887
LC-2-ad	0.953	0.793	0.853	0.805	0.868	0.977	0.958	0.979	0.999	1.02	0.92	0.782	0.93	0.863	0.818	0.873	0.851	0.904	0.873	0.93
LCLC-97TM1	0.614	0.465	0.569	0.563	0.622	0.926	1.27	0.928	1.1	1.03	0.2	0.189	0.215	0.172	0.173	0.286	0.223	0.262	0.244	0.286
LCLC-103H	0.482	0.488	0.547	0.465	0.562	–	–	–	–	–	1.16	1.08	1.07	1.01	1.16	1.02	0.907	0.965	0.888	0.953
LK-2	0.201	0.198	0.155	0.206	0.208	0.918	0.947	0.883	1.03	1.04	0.473	0.438	0.843	0.607	0.696	1.02	–	1.26	1.27	1.24
LOU-NH91	0.667	0.616	0.758	0.701	0.736	0.759	0.591	0.776	0.754	0.738	0.907	0.811	0.981	0.937	0.946	0.697	0.617	0.741	0.745	0.758
LU99A	0.304	0.258	0.327	0.283	0.329	1.05	0.937	0.871	1.08	1.01	0.525	0.478	0.437	0.527	0.503	0.481	0.364	0.534	0.498	0.619
LXF-289	0.78	0.77	0.751	0.781	0.792	0.868	0.906	0.911	0.848	0.891	0.986	0.985	0.992	0.995	1	1	1	1.06	1.03	1.11
NCI-H441	0.749	0.443	0.579	0.669	0.584	–	–	–	–	–	0.561	0.497	0.627	0.664	0.699	–	0.627	0.816	0.746	0.625
NCI-H522	0.718	0.671	0.712	0.684	0.682	–	–	–	–	–	–	–	–	–	–	–	–	–	–	–
NCI-H1299	–	–	–	–	–	0.965	0.914	0.903	0.919	0.936	1.03	0.633	1.03	0.973	1.06	0.999	1.04	1.03	1.12	0.996
NCI-H1648	–	0.283	0.273	0.254	0.274	–	–	–	–	–	–	–	–	–	–	–	–	–	–	–
NCI-H1650	0.653	0.729	0.634	0.562	0.577	0.844	0.697	0.702	0.75	0.765	–	–	–	–	–	–	–	–	–	–
NCI-H1703	–	–	–	–	–	0.959	–	1.05	1.29	0.763	0.601	0.418	0.8	0.614	1.09	0.401	0.21	0.326	0.343	0.367
NCI-H2170	0.63	0.776	0.685	0.702	0.806	0.261	0.251	0.275	0.276	0.267	–	–	–	–	–	0.832	0.797	0.844	0.801	0.835
NCI-H2342	0.585	0.578	0.613	0.68	0.69	–	–	–	–	–	–	–	–	–	–	–	–	–	–	–
SW 900	0.491	0.664	0.482	0.547	0.505	–	–	–	–	–	–	–	–	–	–	–	–	–	–	–
